Assay results taken from patent US20230338380A1, “Stable Immediate Release Tablet and Capsule Formulations of 1-((2S,5R)-5-((7H-Pyrrolo[2,3-D]Pyrimidin-4-YL)Amino)-2-Methylpiperidin-1-YL)Prop-2-EN-1-One” (Pfizer R&D UK Limited, priority 2019, published 2023).

Test: Dynamic vapor sorption (DVS) of filler excipients
Format: physicochemical
Conditions: excipient alone; humidity of 90% RH
Description: Also noted were the stability results for experimental formulation E, blended with lactose anhydrous. […] Lactose anhydrous was used in blend E rather than lactose monohydrate due to concerns regarding the impact of water upon the degradation of PF-06651600-15. To further explore the hygroscopic properties of lactose monohydrate, dynamic vapor sorption (DVS) traces were generated for both lactose anhydrous and lactose monohydrate (FIG. 24). The results for both were similar as the mass increased less than 2% at a humidity of 90% RH.

OC[C@H]1O[C@@H](O[C@H]2[C@H](O)[C@@H](O)C(O)O[C@@H]2CO)[C@H](O)[C@@H](O)[C@H]1O (stereo partly shown) [lactose anhydrous]
Mass increase (DVS): ~1.1%
